Test results published in US4389412A, “Substituted cyclopropanecarboxylic acid esters and pesticidal compositions containing the same as active ingredient” (priority 1979, dated 1983).
Values after ≈ are worked out from the molar mass of the structure shown. Where two headings read alike, the source gives them in different places.

Experiments:
[1] = test system: rice stem borers (Chilo suppressalis Walker); test: Mortality test with rice stem borers by topical application method; format: in vivo; conditions: 24 h
Method: Mortality test with rice stem borers (Chilo suppressalis Walker) by topical application method
Using a microsyringe, 0.5 μl of the above solution was applied to the thoracic abdominal region of each final-instar larva of rice stem borer (Chilo suppressalis Walker). […] The test larvae were used in groups of 20 individuals each.

[2] = test system: tobacco cutworms (Prodenia litura Fabricius); test: Mortality test with tobacco cutworms by topical application method; format: in vivo; conditions: 24 h
Method: Mortality test with tobacco cutworms (Prodenia litura Fabricius) by topical application method
Using a microsyringe, 0.5 μl of the above solution was dripped onto the thoracic adbominal region of each of 3-instar tobacco cutworm (Prodenia litura Fabricius) larvae. […] The test larvae were used in groups of 20 individuals each.

[3] = test system: two-spotted spider mites (Tetranychus urticae Koch); test: Mortality test with two-spotted spider mites by spray application method; format: in vivo; conditions: 48 h, 200 ppm spray, two days, read-out: Percent decrease of population (%)
Method: Mortality test with two-spotted spider mites (Tetranychus urticae Koch) by spray application method
To a 5% aqueous solution of acetone was added dropwise a small amount of Tween-20 (polyethylene sorbitan monolaurate) as a surfactant. […] From 30 to 50 adult two-spotted spider mites (Tetranychus urticae Koch) were released on the leaves of kidney-bean plants in the dicotyledonous stage in a pot 9 cm in diameter, followed by a spray application of the above solution. The pot was kept in a constant-temperature chamber at 26° C. and two days later the mites were examined for deaths. The percent decrease of population was then calculated.

[4] = Fish toxicity test with killifish; format: in vivo, Orizias latipes; conditions: water, killifish, 25±1° C., read-out: TLm (48 hrs.)
Method: Fish toxicity test with killifish (Orizias latipes)
An acetone solution of one of the test compounds as mentioned in Table 8 was prepared by adding said test compound to 15 ml of acetone. To 10 liters of water was added a predetermined amount of the above acetone solution and the mixture was stirred thoroughly to prepare an aqueous solution containing the test compound in a predetermined concentration. This was used as a test water. After the each test water was moderately aerated, ten killifishes (Orizias latipes) with a body weight of about 0.25 g and a body length of about 2.5 cm were released into said each test water which was maintained at 25±1° C. After 48 hours, the test fish was examined for death. The TLm (median tolerance limit, ppm) was determined.

[5] = test system: green rice leafhoppers (Nephotettix cincticeps Uhler); test: Utility Example-2: spray on rice plants, green rice leafhoppers; format: in vivo; conditions: 7 ml/pot, 24 hours
Method: A 30% emulsifiable concentrate of each of the cis- and trans-isomers and a 50:50 mixture of the cis- and trans-isomers of Compound (1) and Compound (2) as prepared by the procedure described in Formulation Example-1 was diluted with water to a concentration of 80 ppm as active compound. Rice plants 4 weeks after sowing in pots (each pot 6 cm in diameter, 7 seedlings) were sprayed with the above solution at the rate of 7 ml/pot and, after drying in the air, each pot was covered with a wire-mesh cage. Then, 20 female adult green rice leafhoppers (Nephotettix cincticeps Uhler) were released into the cage. The caged pots were kept in a constant-temperature chamber at 25° C. […] In all groups, the mortality values were not less than 90%.

[6] = test system: small brown planthoppers (Laodelphax striatellus Fallen); test: Utility Example-3: spray on rice plants, small brown planthoppers; format: in vivo; conditions: 7 ml/pot, 24 hours
Method: A 30% emulsifiable concentrate of each of the cis- and trans-isomers and a 50:50 mixture of the cis- and trans-isomers of Compound (1) and of Compound (2) as prepared by the procedure described in Formulation Example-1 was diluted with water to a concentration of 80 ppm as active compound. Rice plants 4 weeks after sowing in pots (each pot 6 cm in diameter, 7 seedlings) were sprayed with the above diluted solution at the rate of 7 ml/pot and, after drying in the air, each pot was covered with a wire-mesh cage. Then, 30 adult small brown planthoppers (Laodelphax striatellus Fallen) were released into the cage. The pots were kept in a constant-temperature chamber at 25° C. […] In all groups, the mortality was not less than 90%.

[7] = test system: green rice leafhoppers (Nephotettix cincticeps Uhler); test: Utility Example-4: 0.2% dust on rice seedlings, green rice leafhoppers; format: in vivo; conditions: 5 kg per 10 ares, 24 hours, resistant to organophosphorus and carbamate pesticides
Description: (§1) A 0.2% dust preparation of each of the cis- and trans-isomers and a 50:50 mixture of the cis- and trans-isomers of Compound (1) and of Compound (2) as prepared by the procedure described in Formulation Example-3 was applied to rice seedlings by means of a bell-jar duster at the rate of 5 kg per 10 ares. […] In all cases, the mortality was not less than 90%.

[8] = test system: green rice leafhoppers (Nephotettix cincticeps); test: Utility Example-6: 0.5% dust on rice seedlings, green rice leafhoppers; format: in vivo; conditions: 1 kg per 10 ares, 24 hours, resistant to organophosphorus and carbamate pesticides
Description: as §1, with “A 0.5%” for “A 0.2%”, “Formulation Example-4” for “Formulation Example-3”, “of 1” for “of 5”, “ares. Then, 30 green rice leafhoppers (Nephotettix cincticeps) resistant to organophosphorus and carbamate pesticides were released.” for “ares.”

[9] = test system: brown planthoppers (Nilaparvata lugens); test: Utility Example-7: 0.5% dust on rice seedlings, brown planthoppers; format: in vivo; conditions: 1 kg per 10 ares, 24 hours
Description: as §1, with “A 0.5%” for “A 0.2%”, “Formulation Example-4” for “Formulation Example-3”, “rice seedlings, on which 30 adult brown planthoppers (Nilaparvata lugens) were released,” for “rice seedlings”, “of 1” for “of 5”

[10] = test system: houseflies (Musca domestica); test: Mortality test with houseflies by topical application method; conditions: 24 h
Method: Mortality test with houseflies (Musca domestica) by topical application method
Each of the compounds according to this invention and the control compounds (Table 2) was accurately weighted and a 0.1% solution of each sample in acetone was prepared. Female adult houseflies (Musca domestica) resistant to organophosphorus pesticides, were anesthetized with ether and 0.5 μl or 1.0 μl of the above solution was micropipetted onto the prothoracic dorsal region of each insect. The insects were then put in a high-walled dish together with feed and the dish was covered with a wire-mesh cover and kept at a temperature of 25° C. The test insects were used in groups of 30 individuals each. After 24 hours the insects were examined for deaths and the percent mortality was calculated.

[11] = test system: green rice leafhoppers (Nephotettix cincticeps Uhler); test: Mortality test with green rice leafhoppers by topical application method; conditions: Nephotettix cincticeps, in Oryza sativa, 24 h
Method: Mortality test with green rice leafhoppers (Nephotettix cincticeps Uhler) by topical application method
Then, the insects were kept at 25° C. with access to rice plant seedlings. The insects were used in groups of 15 individuals each.

[12] = Fish toxicity test with guppies; format: in vivo, Lebistes reticulatus; conditions: guppy, water, guppies, 20° C., read-out: TLm (48 hrs.)
Method: (§2) Fish toxicity test with guppies (Lebistes reticulatus)
(§3) To 5 liters of water were added 250 mg of Sorpol SM-200 (trademark, Toho Chemical Co., Ltd.) as a surfactant and 2.5 ml of an acetone solution containing one of the test compounds in a predetermined concentration. The mixture was stirred thoroughly to prepare a test water. Ten female guppies (Lebistes reticulatus) of from 3 to 4 months of age were released into the test water which was maintained at 20° C. and the TLm (median tolerance limit, ppm) was determined.

[13] = test system: guppies (Lebistes reticulatus); test: Fish toxicity test with guppies; format: in vivo; conditions: Table 1; 48 hrs.
Method: as §2, §3

[14] = Fish toxicity test with carp; format: in vivo, Cyprinus carpio L; conditions: carp, water, 48 hrs., 21±1° C.; read-out: TLm, Carp (48 hrs.)
Method: Fish toxicity test with carp (Cyprinus carpio L)
An acetone solution of one of the test compounds as mentioned in Table 10 and Tween-20 (the same surfactant as mentioned hereinbefore) was prepared. To 50 liters of water (30 cm deep) in a glass tank was added the above acetone solution. The mixture was stirred thoroughly to prepare an aqueous solution containing the test compound in a predetermined concentration. This was used as a test water. Five carps (Cyprinus carpio L) with a body weight of about 6 g and a body length of about 6 cm were released into each test water which was maintained at 21±1° C. After 48 hours, the test fish was examined for death. The TLm (median tolerance limit, ppm) was determined. The test water was moderately aerated.

carp and water flea = test: Fish toxicity ranking according to Japanese regulations; design: species or system Cyprinus carpio L; Daphnia pulex; conditions: from TLm for carp and water flea
Method: The above ranking with symbols A, B and C were determined according to Japanese regulations relative to application of agricultural chemicals, and these symbols are defined as follows: […]
A: TLm (48 hrs.) value >10 ppm for carp and TLm (3 hrs.) value >0.5 ppm for water flea, wherein toxicity to fishes is not observed by usual application.
B: TLm (48 hrs.) value 10-0.5 ppm for carp; or TLm (48 hrs.) value >10 ppm for carp and TLm (3 hrs.) value <0.5 ppm for water flea, wherein appreciable toxicity to fishes is not observed by usual application but may be observed when applied to wide area at one time.
C: TLm (48 hrs.) value <0.5 ppm for carp, wherein toxicity to fishes is so strongly observed by usual application that both the application method and application area are strictly restricted.

[15] = Acute toxicity test in rat by the oral route; format: in vivo; conditions: in vivo, male rat, in olive oil, after 7 days
Description: Acute toxicity test in rat by the oral route

[16] = test system: brown planthoppers (Nilaparvata lugens Stal); test: Utility Example-1: LC50 on adult brown planthoppers on dipped rice plants; format: in vivo; conditions: Nilaparvata lugens, 24 h, 25° C., read-out: Pesticidal activity LC50
Method: A 1% emulsifiable concentrate of each test compound as prepared by the procedure described in Formulation Example 2 was diluted with water to prepare a test solution of predetermined concentration.
Rice plants, 4 weeks after sowing (cultivated in a pot 6 cm in diameter, 7 seedlings) were dipped in the above solution and after allowing them to dry in the air, the pot was covered with a wire-mesh cage. Then, 30 adult brown planthoppers (Nilaparvata lugens Stal) were released into the cage and the pot was kept in a constant-temperature chamber at 25° C.

[17] = Fish toxicity safety factor (TLm divided by maximum concentration in cover water); design: species or system carp; conditions: in vivo, TLm / maximum concentration in cover water at LC50 application (100 l per 10 ares, 5 cm depth)
Method: To further confirm the low toxicity to fish and high pesticidal activity of Compounds (1) and (2) according to this invention as evidenced by the fish toxicity tests with carps and the above tests, fish toxicity safety factors were calculated from the fish toxicity and pesticidal test data. These fish toxicity safety factors are indicators of safety to fish inhabiting a paddy field to which Compounds (1) and (2) may be actually applied for pest control purposes.
It is first assumed that such a pesticidal solution would normally be applied at the rate of 100 l per 10 ares of paddy field. It is also assumed that a solution (100 l) corresponding to the LC50 of the compounds would be applied to 10 ares of a paddy field carrying a cover water with a depth of 5 cm above ground surface and that all the solution would then find its way into the cover water. The expected maximum concentration of the compound in the cover water is then calculated. The fish toxicity safety factor of a pesticidal compound is defined as the value obtained by dividing the TLm (ppm) of the particular compound by the maximum concentration of the compound in cover water. The meaning of the value of the fish toxicity safety factor being one (1) is that the maximum concentration of the particular compound in cover water corresponds to the TLm of said compound. It is understood that when the pesticidal compound having a fish toxicity safety factor value of less than one (1) is applied to a paddy field, it has a risk of destroying the fish inhabiting there, and that the higher the safety factor value, the higher is the safety of the compound to fish.
This fish toxicity safety factor will now be explained in further detailed by taking the trans-isomer of Compound (2) of this invention as an example.
On the other hand, the toxicity to fish of this compound is TLm >10 ppm. Therefore, by dividing the TLm (i.e. >10 ppm) by the above cover water maximum concentration (i.e. 0.36 ppm), we obtain a fish toxicity safety factor of >28. Thus, the concentration of the trans-isomerof Compound (2) which kills 50% of pests corresponds to less than 1/28 of the concentration of the same isomer which kills 50% of fish. In other words, this means that the trans-isomer of Compound (2) is extremely safe to fish.

Compound: CC1(C)[C@H](C=C(Cl)Cl)[C@@H]1C(=O)OCc1cccc(Oc2ccc(Cl)cc2)c1 (relative stereo) [Compound (1) cis-, 3-(4-chlorophenoxy)benzyl cis-2,2-dimethyl-3-(2,2-dichlorovinyl)cyclopropanecarboxylate]
- mortality at 1 µg/larva [1]: 100%
- mortality at 10 µg/larva [1]: 100%
- mortality at 0.0001 mg [2]: 100%
- mortality at 200 ppm [3]: 100%
- LC50 at 48 h [4]: > 10 µg/mL
- mortality at 80 ppm [5]: ≥ 90%
- mortality at 80 ppm [6]: ≥ 90%
- mortality [7]: not less than 90%
- mortality [8]: not less than 90%
- mortality [9]: not less than 90%
- mortality at 0.5 µg/female [10]: 100%
- mortality at 1 µg/female [10]: 100%

Compound: CC1(C)C(C=C(Cl)Cl)C1C(=O)OC(C#N)c1cccc(Oc2ccccc2)c1 (stereo not shown) [Compound (C), Cypermethrin]
- mortality at 0.01 µg/female [11]: 100%
- mortality at 0.1 µg/female [11]: 100%
- mortality at 1 µg/female [11]: 100%
- mortality at 10 ng ([11]; read-out: Pesticidal effect, green rice leafhopper): 100%
- mortality at 1 µg/larva [1]: 95%
- mortality at 10 µg/larva [1]: 100%
- mortality at 0.001 mg ([1]; read-out: Pesticidal effect, rice stem borer): 95%
- mortality at 0.0001 mg ([2]; read-out: Pesticidal effect, tobacco cutworm): 100%
- LC50 at 48 h [4]: 0.026 µg/mL (≈ 0.0625 µM)
- LC50 at 48 h [12]: < 0.5 µg/mL
- Toxicity to fish TLm, guppy [13]: < 0.5 ppm
- LC50 at 48 h [14]: 0.0045 µg/mL (≈ 0.0108 µM)
- Ranking (carp and water flea): C (TLm (48 hrs.) value <0.5 ppm for carp, wherein toxicity to fishes is so strongly observed by usual application that both the application method and application area are strictly restricted.)
- LD50 at 168 h [15]: 310 mg/kg
- LC50 [16]: 210 µg/mL (≈ 504 µM)
- selectivity ratio [17]: 0.01
- mortality at 0.5 µg/female [10]: 100%
- mortality at 1 µg/female [10]: 100%
- mortality at 0.001 mg ([10]; read-out: Pesticidal effect, housefly): 100%
